Values after ≈ are worked out from the molar mass of the structure shown. Values belong to the molecule of their own block, whether it stands above or below them.
What was measured:
[1] = Test of antimicrobial materials for deodorant activity; settings: compared with currently available materials
Description: Cosmetic Chemists, 19, 611-626 (1968) and Cowen, "Relative Merits of `In Use` and Laboratory Methods for the Evaluation of Antimicrobial Products, "J. Soc. Cosmetic Chemists, 25, 307-323 (1974).

β-lyase = experiment: Sniff vial test: malodor formation from precursors by whole Staphylococcus haemolyticus cells (beta-lyase inhibition); type: cell-based; settings: whole Staphylococcus haemolyticus cells, sniff vial assay
Protocol: BCA was tested for its ability to prevent Staphylococcus haemolyticus from metabolizing sweat to form malodor. Log-phase cultures of Staphylococcus haemolyticus were incubated with various concentrations of BCA (31-0.625 mM) in phosphate buffer (pH 6.8) for 30 minutes at 35° C. The cell/BCA mixture was then added to a "sniff vial" containing malodor precursors and incubated at 35° C. for an additional 30 minutes. Malodor compounds were then extracted from the mixture with chloroform and malodor was judged by spotting 10 μl of chloroform extracts onto bibulous paper and smelling. […] In contrast, the β-lyase inhibitor aminooxyacetic acid (AOA) consistently prevents malodor in the above assay at concentrations of 5.0 mM.

Coryneform bacteria = experiment: Minimum inhibitory concentration (MIC) in axillary bacteria, Coryneform strain; type: cell-based, Coryneform strains of axillary bacteria; settings: Coryneforms; overnight at 35° C.; lowest concentration without turbidity; read-out: MIC
Protocol: (§1) In vitro experiments were conducted in order to determine the ability of several bacterial cell wall synthesis inhibitors to inhibit the growth of axillary bacteria. The minimum inhibitory concentrations (MIC) of β-chloro-D-alanine (BCA), and D-cycloserine were determined in Staphylococcus (Staphylococcus haemolyticus) and Coryneform strains of axillary bacteria as follows: Frozen stock cultures were thawed out and 50 μl of Staphylococcus haemolyticus or 100 μl of Coryneform bacteria were inoculated into 5.0 ml of nutrient media. Bacteria were incubated at 35° C. overnight to produce cultures in log phase growth. A series of tubes was set up into which serial dilutions of BCA or triclosan in nutrient media were added in the range of 0.1 to 0.0001 wt/v % (where 1 g/100 ml=1 wt/v %). The tubes were inoculated with 50 μl of log phase Staphylococcus haemolyticus or Coryneform cultures and incubated at 35° C. overnight. […] The minimum bactericidal concentration (MBC) was determined by adding 50 μl from each clear solution of the MIC experiment into 5.0 ml of fresh nutrient media and incubating overnight at 37° C. […] The MIC of BCA was thus determined to be 0.1 wt/v % and 0.001 wt/v % in Staphylococcus haemolyticus and Coryneforms, respectively. The MIC of D-cycloserine was thus determined to be 0.01 wt/v % and 0.005 wt/v % in Staphylococcus haemolyticus and Coryneforms, respectively. By comparison, the MIC of the common antibacterial deodorant compound triclosan is 0.01 wt/v % and 0.1 wt/v % in Staphylococcus haemolyticus and Coryneforms, respectively.

axillary malodor [2] = experiment: Example 5: axillary malodor evaluation by odor judges, 1.0% D-cycloserine vs 0.3% triclosan; type: in vivo, human; parameters: key to Post-Application 24 Hour Drop from Control: drop in odor score vs control; scale 0 (no odor) to 10 (very intense); settings: for Post-Application 24 Hour Drop from Control / Judges' Malodor Evaluation (score): 1.0% D-cycloserine, 0.3% triclosan; for Judges' Malodor Evaluation (score): scale 0 to 10
Protocol: (§2) BCA was dissolved in a mixture of 60% propylene glycol and 40% water at a final concentration of 1.0%. The pH of the solution was adjusted to about 6.25 with 10 N NaOH. Thirty-nine female panelists applied 0.5 ml of this test solution to either the right or left axilla and 0.5 ml of a comparative solution of 60% propylene glycol and 40% water to the other. The side of application of the test or comparative solutions was assigned in a random fashion. Twenty-four hours after application, each side of the panelists' axilla was judged for odor by a panel of trained odor judges on a scale of 0 (no odor) to 10 (very intense, disagreeable odor). This procedure was performed on four consecutive days. […] Analysis of the clinical results is summarized below:
A test product containing 1.0% D-cycloserine in 60% propylene glycol/40% water was compared to a product containing 0.3% triclosan in 60% propylene glycol/40% water by application to 60 test subjects according to the procedure of Example 4. […] All differences were highly significant.

[3] = tested on: Staphylococcus haemolyticus; experiment: Minimum inhibitory concentration (MIC) in axillary bacteria, Staphylococcus strain; type: cell-based; settings: overnight at 35° C., lowest concentration without turbidity, read-out: MIC
Protocol: as §1

Staphylococcus cells = settings: as disclosed in U.S. Pat. No. 5,487,886; cited from earlier work
[4] = biological target: T1, serine-palmitoyl transferase (Mus musculus, UniProt P97363); settings: topical application; Holleran et al. 1991; cited from earlier work
T1 construct: host or cells: skin, in vivo after topical application
T1 sequence (P97363 1-560): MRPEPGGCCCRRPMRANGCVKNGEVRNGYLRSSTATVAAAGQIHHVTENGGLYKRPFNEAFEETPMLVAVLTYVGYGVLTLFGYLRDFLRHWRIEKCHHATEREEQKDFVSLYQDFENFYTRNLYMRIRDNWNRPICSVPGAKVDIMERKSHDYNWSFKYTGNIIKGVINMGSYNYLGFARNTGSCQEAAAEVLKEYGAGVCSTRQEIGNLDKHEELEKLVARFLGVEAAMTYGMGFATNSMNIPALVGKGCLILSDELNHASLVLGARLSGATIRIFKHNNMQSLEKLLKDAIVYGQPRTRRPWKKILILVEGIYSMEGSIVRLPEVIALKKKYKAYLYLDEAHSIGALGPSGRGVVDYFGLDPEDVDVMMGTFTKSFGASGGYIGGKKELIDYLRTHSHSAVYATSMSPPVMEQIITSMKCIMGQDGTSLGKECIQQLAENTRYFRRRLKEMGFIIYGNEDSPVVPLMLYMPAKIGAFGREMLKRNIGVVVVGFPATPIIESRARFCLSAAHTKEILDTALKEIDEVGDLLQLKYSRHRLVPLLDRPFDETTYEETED
T1 sequence (O35704 1-473 partner): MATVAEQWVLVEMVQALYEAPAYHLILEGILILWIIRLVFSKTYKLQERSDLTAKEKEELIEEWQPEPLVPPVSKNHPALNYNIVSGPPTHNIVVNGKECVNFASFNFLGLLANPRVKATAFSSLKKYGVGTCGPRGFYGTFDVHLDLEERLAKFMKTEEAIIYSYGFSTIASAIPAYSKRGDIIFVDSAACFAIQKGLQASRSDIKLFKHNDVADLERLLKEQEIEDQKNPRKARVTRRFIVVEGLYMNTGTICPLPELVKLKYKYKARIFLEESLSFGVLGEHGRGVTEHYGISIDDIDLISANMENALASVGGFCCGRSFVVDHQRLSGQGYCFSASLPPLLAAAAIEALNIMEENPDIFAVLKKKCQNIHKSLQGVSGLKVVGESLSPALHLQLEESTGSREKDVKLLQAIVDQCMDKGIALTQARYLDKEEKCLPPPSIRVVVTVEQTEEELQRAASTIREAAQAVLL

axillary malodor [5] = experiment: Example 6: axillary malodor evaluation by odor judges, 1.0% β-chloro-D-alanine vs 1.0% β-chloro-L-alanine; type: in vivo, human; parameters: key to 24 Hour Drop from Control / A-B (drop), D-BCA minus L-BCA: drop in odor score on 0 (no odor) to 10 (very intense) scale; settings: 1.0% in 60% propylene glycol/40% water
Protocol: as §2
A test product containing 1.0% β-chloro-D-alanine (BCA)[…] in 60% propylene glycol/40% water was compared to a comparative product containing 1.0% β-chloro-L-alanine in 60% propylene glycol/40% water by application to 50 female test subjects according to the procedure of Example 4.

[6] = topical application; Holleran et al. 1991; cited from earlier work

SMILES: CCCCCCCCCCCCCCCCCC[N+](C)(C)CCC[Si](OC)(OC)OC.[Cl-] [3-(trimethoxysilyl)propyloctadecyldimethyl ammonium chloride]
- Deodorant activity [1]: no improvement over currently available materials was observed

SMILES: NOCC(=O)O [AOA, aminooxyacetic acid, reference compound]
- Concentration that consistently prevents malodor (β-lyase): 5.0 mM

- MIC (Coryneform bacteria): 50 µg/mL (≈ 490 µM)
SMILES: NC1CONC1=O [D-cycloserine]
- Inhibition of axillary malodor, 1.0% D-cycloserine product versus 0.3% triclosan (axillary malodor [2]; all measurements and the composite, odor judges): superior to 0.3% triclosan
- Post-Application 24 Hour Drop from Control (axillary malodor [2]; composite): 1.13
- Judges' Malodor Evaluation (score) (axillary malodor [2]; composite): 3.61
- Post-Application 24 Hour Drop from Control (axillary malodor [2]; measurement day 1): 1.1
- Judges' Malodor Evaluation (score) (axillary malodor [2]; measurement day 1): 3.64
- Post-Application 24 Hour Drop from Control (axillary malodor [2]; measurement day 2): 0.99
- Judges' Malodor Evaluation (score) (axillary malodor [2]; measurement day 2): 3.75
- Post-Application 24 Hour Drop from Control (axillary malodor [2]; measurement day 3): 1.22
- Judges' Malodor Evaluation (score) (axillary malodor [2]; measurement day 3): 3.53
- Post-Application 24 Hour Drop from Control (axillary malodor [2]; measurement day 4): 1.22
- Judges' Malodor Evaluation (score) (axillary malodor [2]; measurement day 4): 3.52
- MIC [3]: 100 µg/mL (≈ 979 µM)

SMILES: NC1CONC1=O [L-cycloserine]
- Effect on the growth of Staphylococcus cells in culture (Staphylococcus cells): no inhibitory effect

SMILES: [H]/N=C(\N/C(=N/[H])NCCCCCCNC(=N)NC(=N)Nc1ccc(Cl)cc1)Nc1ccc(Cl)cc1 [chlorhexidine]
- Deodorant activity [1]: no improvement over currently available materials was observed

SMILES: OO [hydrogen peroxide]
- Deodorant activity [1]: no improvement over currently available materials was observed

SMILES: CC(=O)OCC(COC(C)=O)OC(C)=O [triacetin]
- Deodorant activity [1]: no improvement over currently available materials was observed

SMILES: Oc1cc(Cl)ccc1Oc1ccc(Cl)cc1Cl [triclosan, reference compound]
- MIC (Coryneform bacteria): 1000 µg/mL (≈ 3450 µM)
- Post-Application 24 Hour Drop from Control (axillary malodor [2]; composite): 0.65
- Judges' Malodor Evaluation (score) (axillary malodor [2]; composite): 4.07
- Post-Application 24 Hour Drop from Control (axillary malodor [2]; measurement day 1): 0.67
- Judges' Malodor Evaluation (score) (axillary malodor [2]; measurement day 1): 4
- Post-Application 24 Hour Drop from Control (axillary malodor [2]; measurement day 2): 0.46
- Judges' Malodor Evaluation (score) (axillary malodor [2]; measurement day 2): 4.26
- Post-Application 24 Hour Drop from Control (axillary malodor [2]; measurement day 3): 0.74
- Judges' Malodor Evaluation (score) (axillary malodor [2]; measurement day 3): 3.97
- Post-Application 24 Hour Drop from Control (axillary malodor [2]; measurement day 4): 0.72
- Judges' Malodor Evaluation (score) (axillary malodor [2]; measurement day 4): 4
- MIC [3]: 100 µg/mL (≈ 345 µM)

SMILES: N[C@@H](CCl)C(=O)O [β-chloro-L-alanine, reference compound]
- Inhibition of serine-palmitoyl transferase in the skin [4]: irreversibly inhibits
- 24 Hour Drop from Control (axillary malodor [5]; composite): 1.083
- 24 Hour Drop from Control (axillary malodor [5]; post-application measurement 1): 0.913
- 24 Hour Drop from Control (axillary malodor [5]; post-application measurement 2): 1.040
- 24 Hour Drop from Control (axillary malodor [5]; post-application measurement 3): 1.013
- 24 Hour Drop from Control (axillary malodor [5]; post-application measurement 4): 1.333
- Recovery of skin barrier function in vivo [6]: alters recovery of skin barrier function

Reference: patent US6060043A, “Deodorant composition containing D-amino acid” (The Gillette Company, priority 1998, dated 2000)
